In US6200989A, “2-alkylidene hydroxycumaranone derivatives” (Hoffmann-La Roche Inc., priority 1997, dated 2001):

The molecules below were run against uPAR (Homo sapiens, UniProt Q03405) (assay: ELISA test: inhibition of human urokinase (uPA) binding to its specific receptor uPAR). Conditions: test substance preincubated 30 min at room temperature.
Protocol: Compounds of the invention were tested (ELISA test) as inhibitors of human urokinase (uPA) binding to its specific receptor uPAR mAk (BIO-R4), according to the procedure described in Biol. Chem. Hoppe-Seyler, 376, 587-94 (1995) by Rettenberger et al. The assays are performed in Microtiterplates (96 wells). The following solutions are used:
washing buffer PBS-buffer (without Mg^2+ and Ca^2+)+0.05% Tween 20;
incubation buffer (IP): 1% skimmed milk powder in PBS-buffer (without Mg^2+ and Ca^2+);
BIO-R4 solution: 50 ng/well (0.5 (g/ml; 100 (l/well) in IP;
uPAR solution: 3 ng/well (30 ng/ml; 100 (l/well) in PBS-buffer (without Mg^2+ and Ca^2+);
blocking solution: 1% skimmed milk powder in washing buffer (dissolved at 37° C.);
uPA solution: 0.25 ng/well (5 ng/ml; 50 (l/well) in IP.
Detect ion solutions (per microtiterplate):
(1) 6 ml (100 mM Tris-Cl pH 7.2+0.15% Tween 80)+1.5 ml (10 (g) Plasminogen in aqua bidest;
(2) 6 ml (100 mM Tris-Cl pH 7.2+0.15% Tween 80)+1.5 ml (7.5 mg) chromozyme PL in aqua bidest.
The detection solution must be continuously stirred. Testing substances: the testing substances are dissolved in DMSO. They are used in the test system with a highest concentration of 100 (g/ml. The solutions are prepared using PBS.
Three controls are performed:
a) positive control: using 2% DMSO in PBS;
b) negative control: assay without receptor;
1) inhibition (IC95 at 0.25 mg/ml) with dextranesulfate (MW=500.000);
2) inhibition (IC90 at 1 (g/ml) with inactivated uPA (175 (g/ml).
Incubation is done as follows:
Each well is incubated by 100 (1 of BIO-R4 (c=0.5 (g/ml) for 1 hour at room temperature under shaking. After washing three times with the washing buffer, each well is incubated for 1 hour (37° C.) with 200 (l/well blocking solution. After triple washing each well is incubated for 1 hour at room temperature under shaking with 100 (l/well uPAR (c=30 ng/ml), then the wells are washed again three times with the washing buffer. The testing substance solution and the control solution, respectively, are added (50 (l/well) and are incubated for 30 minutes at room temperature under shaking. An additional 50 (l of uPA solution (c=2.5 ng/ml) are added. After 1 hour at room temperature a triple washing is performed.
For detection, the following procedure is used:
Incubation with 50 (l each of detection solution (1) and (2) at room temperature. After 20 minutes a yellow colour will be visible (the positive control reads an extinction of 1 after 45-60 minutes). The detection is performed at 405 nm (reference is 490 nm) using a Dynatech MR 7000 ELISA reader. To obtain the percentage of inhibition the following formula is used (E stands for extinction): [formula]

uPAR, sequence (Q03405 23-305 limits assumed): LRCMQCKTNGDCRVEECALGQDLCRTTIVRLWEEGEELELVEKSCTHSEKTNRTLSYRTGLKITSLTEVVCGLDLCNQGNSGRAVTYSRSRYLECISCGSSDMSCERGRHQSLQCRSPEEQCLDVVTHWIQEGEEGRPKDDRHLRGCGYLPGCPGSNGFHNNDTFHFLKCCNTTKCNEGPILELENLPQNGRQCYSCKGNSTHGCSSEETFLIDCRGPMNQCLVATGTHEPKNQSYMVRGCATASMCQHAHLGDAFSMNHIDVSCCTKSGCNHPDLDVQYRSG

`CC(C)=C1Oc2cccc(OCCCN3CCC(NC(=O)c4ccc(Cl)c(S(N)(=O)=O)c4)CC3)c2C1=O` [4-(3-(4-(3-aminosulfonyl-4-chlorobenzamido)piperidin-1yl)propoxy)-2-isopropylidenecumaran-3-one] and `CC(C)=C1Oc2cccc(OCCCCN3CCC(NC(=O)c4ccc(Cl)c(Cl)c4)CC3)c2C1=O` [4-(4-(4-(3,4-dichlorobenzamido)piperidin-1-yl)butoxy)-2-isopropylidenecumaran-3-one] cannot be ordered by IC50: 91.2 nM for the first, over 19.3 nM for the second.

`CC(C)=C1Oc2cccc(OCCOCCN3CCC(NC(=O)c4ccc(F)cc4)CC3)c2C1=O` [4-[(2-(2-(4-(4-fluorobenzamido)piperidin-1-yl)ethyl)oxy)ethyloxy]-2-isopropylidenecumaran-3-one] and `CC(C)=C1Oc2cccc(OC/C=C/CN3CCC(NC(=O)c4ccc(Cl)c(Cl)c4)CC3)c2C1=O` [(E)-4-(4-(4-(3,4-dichlorobenzamido)piperidin-1-yl)-2-butenoxy)-2-isopropylidenecumaran-3-one] cannot be ordered by IC50: 104 nM for the first, over 19.4 nM for the second.

For `CC(C)=C1Oc2cccc(OC/C=C\CN3CCC(NC(=O)c4ccc(Cl)c(Cl)c4)CC3)c2C1=O` [(Z)-4-(4-(4-(3,4-dichlorobenzamido)piperidin-1-yl)-2-butenoxy)-2-isopropylidenecumaran-3-one], the IC50 was over 19.4 nM.
